Laboratory results from ChEMBL document CHEMBL1201862, “PubChem BioAssay data set” (2004).
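Cells were grown in 96-well plates and exposed to each compound for 48 hours at five concentrations; endpoints were interpolated linearly between bracketing concentrations, or set to the highest concentration if not reached. GI50: concentration for 50% inhibition of growth.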 Active and inactive are the calls of the source. Rule as the data show it: active = GI50 up to about 1.1 µM and inactive = higher.

Experiments:
Assay in all cases: inhibition of tumour cell growth, NCI panel, 48 h
[1] = tested on: 786-0
[2] = tested on: A498
[3] = tested on: A549
[4] = tested on: ACHN
[5] = tested on: CCRF-CEM
[6] = tested on: COLO 205
[7] = tested on: DLD-1
[8] = tested on: DMS-114
[9] = tested on: DMS-273
[10] = tested on: EKVX
[11] = tested on: HCC 2998
[12] = tested on: HCT-15
[13] = tested on: HL-60
[14] = tested on: HOP-62
[15] = tested on: HT-29
[16] = tested on: IGROV-1
[17] = tested on: K562
[18] = tested on: KM-20L2
[19] = tested on: KM12
[20] = tested on: LOX IMVI
[21] = tested on: LXFL 529
[22] = tested on: M14
[23] = tested on: MOLT-4
[24] = tested on: Malme-3M
[25] = tested on: NCI-H23
[26] = tested on: NCI-H460
[27] = tested on: NCI-H522
[28] = tested on: OVCAR-3
[29] = tested on: OVCAR-4
[30] = tested on: OVCAR-5
[31] = tested on: OVCAR-8
[32] = tested on: RPMI-8226
[33] = tested on: RXF 393
[34] = tested on: SF-268
[35] = tested on: SF-295
[36] = tested on: SF-539
[37] = tested on: SK-MEL-28
[38] = tested on: SK-MEL-2
[39] = tested on: SK-MEL-5
[40] = tested on: SK-OV-3
[41] = tested on: SN12C
[42] = tested on: SNB-19
[43] = tested on: SNB-75
[44] = tested on: SNB-78
[45] = tested on: SR
[46] = tested on: SW-620
[47] = tested on: TK-10
[48] = tested on: U-251
[49] = tested on: UACC-257
[50] = tested on: UACC-62
[51] = tested on: UO-31
[52] = tested on: HCT-116
[53] = tested on: HOP-18
[54] = tested on: HOP-92
[55] = tested on: M19-MEL
[56] = tested on: XF498
[57] = tested on: NCI-H226

Measured: GI50

COC(=O)CCC1CCc2c(OC)ccc(OC)c2C1=O (stereo not given)
inactive: [1] > 100 µM | [2] > 10 µM | [3] > 100 µM | [4] > 100 µM | [5] > 100 µM | [6] > 100 µM | [7] > 100 µM | [8] > 100 µM | [9] > 100 µM | [10] > 100 µM | [11] > 100 µM | [13] > 100 µM | [14] > 100 µM | [15] > 100 µM | [16] > 100 µM | [17] > 100 µM | [18] > 100 µM | [19] > 100 µM | [20] > 100 µM | [21] > 100 µM | [22] > 100 µM | [23] > 100 µM | [24] > 100 µM | [25] > 100 µM | [26] > 100 µM | [27] > 100 µM | [28] > 100 µM | [29] > 100 µM | [30] > 100 µM | [31] > 100 µM | [32] > 100 µM | [33] > 100 µM | [34] > 100 µM | [35] > 100 µM | [36] > 100 µM | [37] > 100 µM | [38] > 100 µM | [39] > 100 µM | [40] > 100 µM | [41] > 100 µM | [42] > 100 µM | [43] > 100 µM | [44] > 100 µM | [45] > 100 µM | [46] > 100 µM | [47] > 100 µM | [48] > 100 µM | [49] > 100 µM | [50] > 100 µM | [51] > 100 µM
> 100 µM: [12]

CC1=N/C(=C\c2c(O)ccc3ccccc23)C(=O)O1
inactive: [1] > 100 µM | [2] > 100 µM | [3] > 100 µM | [4] > 100 µM | [5] > 100 µM | [6] > 100 µM | [7] > 100 µM | [8] > 100 µM | [10] > 100 µM | [11] > 100 µM | [52] > 100 µM | [13] > 100 µM | [53] > 100 µM | [14] > 100 µM | [54] > 100 µM | [15] > 100 µM | [16] > 100 µM | [17] > 100 µM | [18] > 100 µM | [19] > 100 µM | [21] > 100 µM | [22] > 100 µM | [55] > 100 µM | [23] > 100 µM | [24] > 100 µM | [25] > 100 µM | [26] > 100 µM | [27] > 100 µM | [29] > 100 µM | [30] > 100 µM | [31] > 100 µM | [32] > 100 µM | [33] > 100 µM | [34] > 100 µM | [35] > 100 µM | [36] > 100 µM | [37] > 100 µM | [38] > 100 µM | [39] > 100 µM | [41] > 100 µM | [42] > 100 µM | [44] > 100 µM | [46] > 100 µM | [48] > 100 µM | [49] > 100 µM | [50] > 100 µM | [51] > 100 µM
> 100 µM: [12]
active: [43] 0.849 µM

O=S(O)c1cc(Cl)cc(Cl)c1O
inactive: [2] > 100 µM | [4] > 100 µM | [5] > 100 µM | [7] > 100 µM | [8] 80.9 µM | [10] > 100 µM | [11] > 100 µM | [52] > 100 µM | [13] > 100 µM | [14] > 100 µM | [15] > 100 µM | [17] > 100 µM | [19] > 100 µM | [20] > 100 µM | [21] > 100 µM | [22] > 100 µM | [55] > 100 µM | [23] > 100 µM | [24] > 100 µM | [25] > 100 µM | [26] > 100 µM | [27] > 100 µM | [28] > 100 µM | [29] > 100 µM | [30] > 100 µM | [33] > 100 µM | [34] > 100 µM | [36] > 100 µM | [37] > 100 µM | [38] > 100 µM | [40] > 100 µM | [41] > 100 µM | [42] > 100 µM | [43] 75.9 µM | [44] > 100 µM | [47] > 100 µM | [48] > 100 µM | [49] > 100 µM | [50] > 100 µM | [51] > 100 µM | [56] > 100 µM

CCOC(=O)C1Oc2ccc([N+](=O)[O-])cc2C1(C)O (stereo not given)
inactive: [1] > 100 µM | [2] > 100 µM | [3] > 100 µM | [4] > 100 µM | [5] > 100 µM | [6] > 100 µM | [7] > 100 µM | [8] > 100 µM | [9] > 100 µM | [10] > 100 µM | [11] > 100 µM | [13] > 100 µM | [14] > 100 µM | [54] > 100 µM | [15] > 100 µM | [16] > 100 µM | [17] > 100 µM | [19] > 100 µM | [20] > 100 µM | [21] > 100 µM | [22] > 100 µM | [55] > 100 µM | [23] > 100 µM | [24] > 100 µM | [57] > 100 µM | [25] > 100 µM | [26] > 100 µM | [27] > 100 µM | [28] > 100 µM | [29] > 100 µM | [30] > 100 µM | [31] > 100 µM | [32] > 100 µM | [33] > 100 µM | [34] > 100 µM | [35] > 100 µM | [36] > 100 µM | [37] > 100 µM | [38] > 100 µM | [39] > 100 µM | [40] > 100 µM | [41] > 100 µM | [42] > 100 µM | [43] > 100 µM | [44] > 100 µM | [45] > 100 µM | [46] > 100 µM | [47] > 100 µM | [48] > 100 µM | [49] > 100 µM | [50] > 100 µM | [51] > 100 µM | [56] > 100 µM
> 100 µM: [12]
